System: phospho-ERK in melanoma derived WM-266-4 cells
Assay: Mechanistic cellular assay for Raf kinase activity (phospho-ERK, Bio-Plex)
Assay type: cell-based
Conditions: Homo sapiens, treated 1-2 hr at 37° C., serum free medium, read-out: pERK EC50
From the text: (2) Mechanistic Cellular Assay for Raf Kinase Activity
The following method was utilized for quantifying the amount of phospho-ERK in melanoma derived WM-266-4 cells (one allele each of wild type BRaf and mutant BRaf (V600D) as an indicator of Raf kinase activity in cells treated with various kinase inhibitors.
(1) Detached adhered WM-266-4 cells from flask using 0.25% Trypsin. Resuspended cells in growth media (90% RPMI 1640, 10% FBS) and determine cell density.
(2) Seeded cells @ 10,000 cells/well in 96-well (flat bottom) tissue culture plates (36,000 cells/cm^2). Added growth media to a final volume of 200 uL/well and incubated overnight at 37° C.
(1) Prepared compound dilutions (1000× in DMSO) as follows. Starting with a stock of 5 mM compound in DMSO, diluted serially 3-fold in DMSO for a total of eight concentrations (5 mM, 1.67 mM, 0.556 mM, 0.185 mM, 0.062 mM, 0.021 mM, 0.007 mM, 0.002 mM).
(2) Prepared compound-containing media by adding 1 mL treatment media (100% RPMI 1640 without FBS) to 1 μL of compound dilution (from step 3).
(3) Removed plates (from step 2) from incubator. Aspirated media and replace with 150 μL compound-containing media. Incubate for 1-2 hr at 37° C.
(4) Removed plates (from step 5) from incubator and treated each as follows: aspirated compound-containing media and replaced with 300 μL ice-cold 1×PBS, aspirated PBS and replaced with 45 μL lysis buffer (Biorad Bio-Plex lysis buffer containing 0.4% v/v lysis buff. Factor 1, 0.2% v/v lysis buff. Factor 2, and PMSF to 2 mM final concentration), and then placed plate on ice until all plates were treated.
(5) After all plates were processed (step 6), placed plates on an orbital shaker and shook at room temperature for at least 15 min.
(6) Finally, removed plates from shaker, and transfered 40 μL/well of lysate from each to new corresponding 96-well V-bottom plates. At this point, samples may be frozen and stored @−80 C.°.
(1) Thaw (if necessary) plates (from step 8) and added 40 μL of Phospho-Protein Assay Buffer to each 40 μL lysate for a 1:1 dilution.
(2) Prepared phospho-ERK1,2 Bioplex beads by diluting 1:50 with Bioplex Wash Buffer (mixing 49 μL Wash Buffer with 1 μL of phospho-ERK1,2 Bioplex beads for each sample to be analyzed). Protected from light by wrapping tube in aluminum foil and kept at room temperature.
(3) Prepared Filter Plate by adding 100 μL/well Bioplex Wash Buffer and removed by vacuum filtration.
(4) Add 50 μL of bead solution (from step 10) to each well of a prepared Filter Plate (from step 11) and vacuum filter. Wash/filter 2× with 100 μL/well Wash Buffer.
(5) Added 50 μL of each lysate to appropriate well of the Filter Plate (from step 12). For this and all subsequent plate incubation steps, placed plate on an inverted plate cover (reduces background), and wrapped in aluminum foil (to protect from light). Shook overnight at room temperature. Included positive (control lysate) and negative (lysis buffer) controls.
(1) Prepared detection antibody (phospho-ERK1,2 Ab) by diluting 1:25 with Detection Antibody Dilution Buffer Buffer (mixing 24 μL Detection Antibody Dilution Buffer with 1 μL of phospho-ERK1,2 Ab for each sample to be analyzed).
(2) Removed plate (from step 13) from shaker and vacuum filter. Washed/filter plate 3× with 100 μL/well Wash Buffer. Added 25 μL of diluted antibody to each well. Incubated on shaker at RT for 30-45 min.
(3) Prepared streptavidin-PE by diluting 1:100 with Wash Buffer (mixing 49.5 μL Wash Buffer with 0.5 μL of 100× streptavidin-PE for each sample to be analyzed). Protected from light.
(4) Removed plate (from step 15) from shaker and vacuum filter. Washed/filter plate 3× with 100 μL/well Wash Buffer. Add 50 μL of diluted streptavidin-PE solution (from step 16) to each sample well. Incubated on shaker for 10-20 min.
(5) Removed plate from shaker and vacuum filter. Wash/filter plate 3× with 100 μL/well Bead Resuspension Buffer. After last wash resuspended beads in 125 μL Bead Resuspension Buffer. […]

Row | Structure (SMILES) | EC50 [µM]
1 | Cc1ncc(C(=O)N[C@H](C)c2ncc(C(=O)Nc3cc(C(F)(F)F)c(Cl)cn3)s2)n1C [Example 146] | ≤ 0.1
2 | C[C@H](NC(=O)c1cc2c(cn1)ncn2C)c1cnc(Nc2ccc(Cl)c(C(F)(F)F)c2)cn1 (single isomer, unassigned) [Example 237] | 1 to 10
3 | C[C@@H](NC(=O)c1cnn(C)c1Cl)c1ncc(C(=O)Nc2cc(C(F)(F)F)c(Cl)cn2)s1 [Example 124] | ≤ 0.1
4 | CC(NC(=O)c1cc2c(cn1)ncn2C)c1cnc(Nc2ccc(Cl)c(C(F)(F)F)c2)cn1 (stereo not shown) [Example 232] | ≤ 0.1
5 | CC(NC(=O)c1cnc2n1CCN(C(=O)OC(C)(C)C)C2)c1cnc(Nc2ccc(C(F)(F)F)cc2)s1 (stereo not shown) [Example 313] | 1 to 10
6 | COc1ncc(C(=O)N[C@H](C)c2ncc(C(=O)Nc3cc(C(F)(F)F)c(Cl)cn3)s2)n1C [Example 157] | 1 to 10
7 | CC(NC(=O)c1cnn2cc(-c3cccnc3F)ccc12)c1nc(C(=O)Nc2cc(C(F)(F)F)c(Cl)cn2)cs1 (stereo not shown) [Example 324] | 0.1 to 1
8 | CCn1cncc1C(=O)N[C@H](C)c1ncc(C(=O)Nc2cc(C(F)(F)F)c(Cl)cn2)s1 [Example 145] | 0.1 to 1
9 | C[C@@H](NC(=O)c1cnc2n1CCCCC2)c1ncc(C(=O)Nc2cc(C(F)(F)F)c(Cl)cn2)s1 [Example 168] | ≤ 0.1
10 | CC(NC(=O)c1cc2c(cn1)ncn2C)c1cnc(Nc2cccc(C3(C)CC3)c2)s1 (stereo not shown) [Example 271] | 0.1 to 1
11 | Cc1nc2cnc(C(=O)NC(C)c3ncc(Nc4ccc(C(F)(F)F)cc4)s3)cn2c1Cl (stereo not shown) [Example 308] | 1 to 10
12 | CC(C)S(=O)(=O)N1CC(n2cnc3cnc(C(=O)N[C@H](C)c4cnc(Nc5ccc(C(F)(F)F)cc5)cn4)cc32)C1 [Example 343] | ≤ 0.1
13 | C[C@@H](NC(=O)c1cnn2c1CCCC2)c1ncc(C(=O)Nc2cc(C(F)(F)F)c(Cl)cn2)s1 [Example 85] | ≤ 0.1
14 | C[C@@H](NC(=O)c1cc2c(cn1)ncn2[C@@H]1CCN(C(=O)OC(C)(C)C)C1)c1cnc(Nc2ccc(C(F)(F)F)cc2)s1 [Example 22] | 0.1 to 1
15 | CC(NC(=O)c1cnn2cc(-c3ccc(N4CCOCC4)nc3)ccc12)c1ncc(C(=O)Nc2cc(C(F)(F)F)c(Cl)cn2)s1 (stereo not shown) [Example 323] | ≤ 0.1
16 | C[C@@H](NC(=O)c1cnc2sccn12)c1ncc(C(=O)Nc2cc(C(F)(F)F)c(Cl)cn2)s1 [Example 165] | 0.1 to 1
17 | CC(NC(=O)c1cc2c(cn1)ncn2CCS(C)(=O)=O)c1cnc(Nc2ccc(C(F)(F)F)cc2)s1 (stereo not shown) [Example 184] | 0.1 to 1
18 | CCn1cnc2cnc(C(=O)NC(C)c3cnc(Nc4ccc(C(F)(F)F)cc4)cn3)cc21 (stereo not shown) [Example 38] | ≤ 0.1
19 | CC(NC(=O)c1cc2c(cn1)ncn2C)c1cnc(Nc2cc(C(C)(C)C(F)(F)F)ccc2F)s1 (stereo not shown) [Example 274] | ≤ 0.1
20 | C[C@@H](NC(=O)c1cnc2n1CCN2)c1ncc(C(=O)Nc2cc(C(F)(F)F)c(Cl)cn2)s1 [Example 169] | ≤ 0.1
21 | C[C@@H](NC(=O)c1cnc2n1CCCC2)c1ncc(C(=O)Nc2cc(C(F)(F)F)c(Cl)cn2)s1 [Example 335] | ≤ 0.1
22 | C[C@@H](NC(=O)c1cc2c(cn1)ncn2C1CN(S(C)(=O)=O)C1)c1cnc(Nc2ccc(C(F)(F)F)cc2)cn1 [Example 345] | ≤ 0.1
23 | CC(NC(=O)c1cc2c(cn1)ncn2C(C)C)c1cnc(Nc2ccc(C(F)(F)F)cc2)cn1 (stereo not shown) [Example 80] | 0.1 to 1
24 | CC(NC(=O)c1cc2c(cn1)ncn2C)c1cnc(Nc2ccc(C3COC3)cc2)cn1 (stereo not shown) [Example 281] | 1 to 10
25 | CC(NC(=O)c1cnn2c1CCCC2)c1ncc(C(=O)Nc2cc(C(F)(F)F)c(Cl)cn2)s1 (stereo not shown) [Example 84] | ≤ 0.1
26 | COCCn1c(C(=O)N[C@H](C)c2ncc(C(=O)Nc3cc(C(F)(F)F)c(Cl)cn3)s2)cnc1C [Example 152] | ≤ 0.1
27 | C[C@@H](NC(=O)c1cnc2n1CCC2)c1ncc(C(=O)Nc2cc(C(F)(F)F)c(Cl)cn2)s1 [Example 336] | ≤ 0.1
28 | CC(NC(=O)c1cc2c(cn1)ncn2C)c1cnc(Nc2ccc(C(F)(F)F)nc2)s1 (stereo not shown) [Example 246] | 0.1 to 1
29 | C[C@@H](NC(=O)c1cc2c(cn1)ncn2CCS(C)(=O)=O)c1cnc(Nc2ccc(C(F)(F)F)cc2)cn1 [Example 186] | 0.1 to 1
30 | CC(NC(=O)c1cc2c(cn1)nc(N)n2C)c1cnc(Nc2ccc(C(F)(F)F)nc2)s1 (stereo not shown) [Example 293] | 0.1 to 1

More lines, now with the values ahead:

Row | EC50 [µM] | Structure (SMILES)
31 | 1 to 10 | CC(NC(=O)c1cc2c(cn1)ncn2C)c1cnc(Nc2cc(C(F)(F)F)ccn2)s1 (stereo not shown) [Example 251]
32 | 1 to 10 | C[C@@H](NC(=O)c1cnn(-c2ccccc2)c1)c1ncc(C(=O)Nc2cc(C(F)(F)F)c(Cl)cn2)s1 [Example 117]
33 | 0.1 to 1 | C[C@@H](NC(=O)c1ccc2[nH]cnc2c1)c1ncc(C(=O)Nc2cc(C(F)(F)F)c(Cl)cn2)s1 [Example 53]
34 | 0.1 to 1 | Cc1ccc2cc(C(=O)N[C@H](C)c3ncc(C(=O)Nc4cc(C(F)(F)F)c(Cl)cn4)s3)ccc2n1 [Example 60]
35 | 0.1 to 1 | C[C@@H](NC(=O)c1cnc2ncccn12)c1ncc(C(=O)Nc2cc(C(F)(F)F)c(Cl)cn2)s1 [Example 137]
36 | 0.1 to 1 | C[C@@H](NC(=O)c1cncn1-c1ccccc1)c1ncc(C(=O)Nc2cc(C(F)(F)F)c(Cl)cn2)s1 [Example 144]
37 | ≤ 0.1 | CC(NC(=O)c1cc2c(cn1)ncn2C)c1cnc(Nc2cccc(C(C)(C)C(F)(F)F)c2)s1 (stereo not shown) [Example 278]
38 | ≤ 0.1 | CC(NC(=O)c1cnn2cc(-c3ccncc3)ccc12)c1ncc(C(=O)Nc2cc(C(F)(F)F)c(Cl)cn2)s1 (stereo not shown) [Example 321]
39 | ≤ 0.1 | CC(NC(=O)c1cc2c(cn1)ncn2C(C)C)c1cnc(Nc2ccc(C(F)(F)F)cc2)s1 (stereo not shown) [Example 12]
40 | ≤ 0.1 | Cc1ncc(C(=O)NC(C)c2ncc(C(=O)Nc3cc(C(F)(F)F)c(Cl)cn3)s2)n1-c1ccncc1 (stereo not shown) [Example 159]
41 | ≤ 0.1 | CC(NC(=O)c1cc2c(cn1)ncn2C1CCCC1)c1cnc(Nc2ccc(C(F)(F)F)cc2)s1 (stereo not shown) [Example 17]
42 | 1 to 10 | CC(NC(=O)c1ccc2cn[nH]c2c1)c1ccc(C(=O)Nc2cccc(C(F)(F)F)c2)s1 (stereo not shown) [Example 194]
43 | 1 to 10 | CCc1nc2cnc(C(=O)NC(C)c3ncc(Nc4ccc(C(F)(F)F)cc4)s3)cn2c1N (stereo not shown) [Example 307]
44 | ≤ 0.1 | CC(NC(=O)c1cc2c(cn1)ncn2C1CC1)c1cnc(Nc2ccc(C(F)(F)F)cc2)s1 (stereo not shown) [Example 19]
45 | 0.1 to 1 | CC(NC(=O)c1cccc(N2CCOCC2)n1)c1ncc(C(=O)Nc2cc(C(F)(F)F)c(Cl)cn2)s1 (stereo not shown) [Example 88]
46 | ≤ 0.1 | C[C@@H](NC(=O)c1ccc2nccnc2c1)c1ncc(C(=O)Nc2cc(C(F)(F)F)c(Cl)cn2)s1 [Example 63]
47 | 1 to 10 | CC(NC(=O)c1ccc2[nH]ncc2c1)c1ccc(C(=O)Nc2cccc(C(F)(F)F)c2)s1 (stereo not shown) [Example 195]
48 | 0.1 to 1 | CC(NC(=O)c1cc2c(cn1)ncn2C)c1cnc(Nc2cccc(C(F)(F)F)c2)s1 (stereo not shown) [Example 178]
49 | 1 to 10 | C[C@@H](NC(=O)c1cc2c(cn1)ncn2C1CN(CC(=O)O)C1)c1cnc(Nc2ccc(C(F)(F)F)cc2)s1 [Example 349]
50 | 1 to 10 | CC(NC(=O)c1cc2c(cn1)ncn2CC(N)=O)c1cnc(Nc2ccc(C(F)(F)F)cc2)s1 (stereo not shown) [Example 355]
51 | 0.1 to 1 | CC(NC(=O)c1cc2c(cn1)ncn2C1CCCCC1)c1cnc(Nc2ccc(C(F)(F)F)cc2)s1 (stereo not shown) [Example 18]
52 | 0.1 to 1 | C[C@@H](NC(=O)c1ccc2c(c1)OCCO2)c1ncc(C(=O)Nc2cc(C(F)(F)F)c(Cl)cn2)s1 [Example 70]

— patent US20120040951A1, “HETEROARYL COMPOUNDS USEFUL AS RAF KINASE INHIBITORS” (priority 2008, published 2012)
